# According to patent US8637684B2, “Tautomycetin and tautomycetin analog biosynthesis” (Wisconsin Alumni Research Foundation, priority 2010, dated 2014):
# How the values were obtained:
# HePTP = target: T1, HePTP (Homo sapiens, UniProt P35236); assay: PTP activity assay with pNPP as substrate: HePTP; format: biochemical; conditions: pNPP as substrate at Km, pH 7.0, 25° C., I = 0.15 M
# T1 sequence (P35236 1-360): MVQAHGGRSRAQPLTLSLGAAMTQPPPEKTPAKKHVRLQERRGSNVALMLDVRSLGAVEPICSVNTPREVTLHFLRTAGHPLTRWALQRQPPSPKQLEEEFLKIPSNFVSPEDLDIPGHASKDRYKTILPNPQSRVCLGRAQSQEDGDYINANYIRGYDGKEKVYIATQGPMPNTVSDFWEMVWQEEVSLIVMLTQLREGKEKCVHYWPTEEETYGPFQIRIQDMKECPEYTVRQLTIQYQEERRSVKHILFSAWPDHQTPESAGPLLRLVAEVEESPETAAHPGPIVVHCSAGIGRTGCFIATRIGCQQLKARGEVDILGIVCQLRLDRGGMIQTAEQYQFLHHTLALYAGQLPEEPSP
# Description: The PTP activity was assayed using pNPP as a substrate at 25° C. in 50 mM 3,3-dimethylglutarate buffer, pH 7.0, containing 1 mM EDTA with an ionic strength of 0.15 M adjusted by NaCl. TTM, TTN and the engineered analogs were analyzed for inhibition of a panel of PTPs at 10 μM compound concentration. For each enzyme screened, test compounds were diluted to 20 μM in 100 μL and combined with 50 μL pNPP at a concentration of 4×Km. The reaction was initiated by the addition of 50 μL of 4× concentrated enzyme and pNPP was allowed to convert to the product p-nitrophenol. The reaction was quenched by the addition of 50 μL of 5N NaOH. Nonenzymatic hydrolysis of pNPP was corrected by measuring the control without the addition of enzyme. Production of p-nitrophenol was monitored by a Spectra MAX385 microplate spectrophotometer (Molecular Devices) at 405 nm using a molar extinction coefficient of 18,000 M^−1 cm^−1. IC50 values were calculated by fitting the absorbance at 405 nm versus inhibitor concentration to the following equation: AI/A0=IC50/(IC50+[I]) where AI is the absorbance at 405 nm of the sample in the presence of inhibitor; Ao is the absorbance at 405 nm in the absence of inhibitor; and [I] is the concentration of the inhibitor.
# SHP2 = target: T2, SHP2 (Homo sapiens, UniProt Q06124); assay: Ki measurement, steady-state kinetic analysis of SHP2-catalyzed pNPP hydrolysis; format: biochemical
# T2 construct: The expression and purification of the SHP2 catalytic domain (residues 262-528) were described previously; made in house
# T2 sequence (Q06124 262-528): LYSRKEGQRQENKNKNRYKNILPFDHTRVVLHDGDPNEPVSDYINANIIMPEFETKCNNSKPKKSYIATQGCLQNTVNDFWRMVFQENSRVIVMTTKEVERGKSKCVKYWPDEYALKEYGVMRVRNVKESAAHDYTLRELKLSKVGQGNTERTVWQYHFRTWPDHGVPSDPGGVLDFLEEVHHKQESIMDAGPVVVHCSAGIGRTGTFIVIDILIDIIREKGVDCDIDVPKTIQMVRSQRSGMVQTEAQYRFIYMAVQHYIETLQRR
# Description: The SHP2-catalyzed hydrolysis of pNPP in the presence of TTN or TTN D-1 was assayed at 25° C. and in the assay buffer described above. The mode of inhibition and K, value were determined in the following manner. At various fixed concentrations of the inhibitor (0-3 Ki), the initial rate at a series of pNPP concentrations was measured by following the production of p-nitrophenol as describe above, ranging from 0.2- to 5-fold the apparent Km values. The data were fitted to appropriate equations using SigmaPlot-Enzyme Kinetics to obtain the inhibition constant and to assess the mode of inhibition.
# To further characterize SHP2 inhibition by the TTN and TTN D-1, the IC50 values for TTN and TTN D-1 were measured at a pNPP concentration fixed at the experimentally determined Km for each PTP. […] To establish the mechanism of SHP2 inhibition by TTN and TTN D-1, the inhibition constants and mode of inhibition were determined by steady-state kinetic analysis of the SHP2-catalyzed reaction.
# [1] = tested on: GM-CSF induced ERK1/2 activation in macrophage progenitors; assay: GM-CSF induced ERK1/2 activation in macrophage progenitors, immunoblot; format: cell-based; conditions: 2 μM TTN for 2 hours, GM-CSF 50 ng/mL
# Description: Bone marrow low density mononuclear cells (LDMNCs) were transduced with MIEG3 (empty vector), MIEG3-WT SHP2, or MIEG3-SHP2/E76K, sorted based on enhanced green fluorescent protein (EGFP) expression, and cultured for 5 days in M-CSF 100 ng/mL to generate macrophage progenitors, as previously described (Chan et al., 2005). Cells were serum- and growth factor-deprived for 16 hours, treated with 2 μM TTN for 2 hours, and stimulated with GM-CSF 50 ng/mL followed by preparation of protein extracts. Extracts were evaluated by immunoblot using α-phospho-ERK1/2 for activated ERK levels and α-ERK1/2 for total ERK levels (Cell Signaling Technology, Beverly, Mass.).
# For biochemical studies, macrophage progenitor cells expressing empty vector (MIEG3), wild-type SHP2, or SHP2/E76K were serum- and growth factor-deprived for […]. Cells were pre-treated with DMSO or 2 μM TTN for 2 hours, and then cultures either remained unstimulated or were stimulated with GM-CSF at 50 ng/mL for 60 minutes. […] They next examined the effect of TTN on GM-CSF-stimulated hyperproliferation of SHP2/E76K-expressing hematopoietic progenitors. […] To provide further evidence that SHP2 is a molecular target of TTN, the inventors determined the X-ray crystal structure of SHP2 in complex with TTN D-1, as crystallization attempts for the SHP2-TTN complex were unsuccessful. […]
# [2] = tested on: hematopoietic progenitors (MIEG3, wild-type SHP2, SHP2/E76K); assay: Methylcellulose-based colony assay of transduced bone marrow LDMNCs (CFU-M / CFU-GM); format: cell-based; conditions: 2 μM TTN, GM-CSF 1 ng/mL, 7 days
# Description: Transduced, EGFP+ cells were subjected to ^3H-thymidine incorporation assays, as previously described (Munugalavadla et al., 2007), or plated at a concentration of 8000 cells/mL in 0.9% methylcellulose-based media containing IMDM, 2 mM glutamine, 1% penicillin/streptomycin, 80 μM β-mercaptoethanol, 30% FBS, and GM-CSF 1 ng/mL or with saturating concentrations of growth factors including IL-3 200 U/mL, erythropoietin 4 U/mL, and stem cell factor (SCF) 100 ng/mL. All growth factors were from Peprotech. Cultures were incubated in a humidified incubator at 37° C. in 5% CO2 for 7 days and were scored for total colonies and for morphology to determine colony forming unit (CFU)-granulocyte-macrophage (GM) or CFU-monocyte (M).
# For biochemical studies, macrophage progenitor cells expressing empty vector (MIEG3), wild-type SHP2, or SHP2/E76K were serum- and growth factor-deprived for 24 hours. Cells were pre-treated with DMSO or 2 μM TTN for 2 hours, and then cultures either remained unstimulated or were stimulated with GM-CSF at 50 ng/mL for 60 minutes. […] To provide further evidence that SHP2 is a molecular target of TTN, the inventors determined the X-ray crystal structure of SHP2 in complex with TTN D-1, as crystallization attempts for the SHP2-TTN complex were unsuccessful. […]
substance,measurement,setting,value
tautomycetin [TTN],IC50,HePTP,> 50000 nM
same,mode of inhibition of the SHP2-catalyzed reaction,"SHP2; Lineweaver-Burk, FIG. 2",competitive inhibitors
same,Ki,"SHP2; pNPP, 25° C., pH 7.0",1600 ± 100 nM
same,effect on ERK1/2 hyperactivation in SHP2/E76K-expressing cells,[1],effectively inhibited
same,effect on GM-CSF induced ERK1/2 activation in macrophage progenitors,[1],abrogated
same,development of CFU-M,[2],reduced in all cells types
